According to US11993582B2, “Crystalline forms of a LTA4H inhibitor” (Novartis AG, priority 2018, dated 2024):
≈ marks a conversion by molar mass, not a printed value.

Assays:
Type in all cases: physicochemical
[1] = Physical stability: behavior under grinding (XRPD); details: ground manually in a mortar for 3 minutes
Method: Behavior under grinding: The physical stability of crystalline form Form HB was also evaluated. 50 mg of the crystalline form B or HB were ground manually in a mortar for 3 minutes.

[2] = Physical stability: granulation simulation experiment (XRPD and/or DSC); details: ethanol or water as granulation solvent, 25° C.
Method: Behavior under granulation simulation experiment: The physical stability of crystalline forms HB was also evaluated in granulation simulation experiments. In these experiments granulating solvent was added dropwise to the crystalline form HB until the solid is wetted sufficiently. The mixture was then vortexed between each addition at 25° C. The mixture was then dried under vacuum. The crystallinity of the material (post-grinding) was re-evaluated by XRPD and/or DSC. The granulating solvent was water or ethanol.

[3] = Stability in solvent: equilibration of Form HB with solvent, residue analysed by XRPD
Method: Equilibrations with solvent were carried out to investigate the relative stability of form HB in solvent. 50 mg of Form HB is equilibrated with 1 mL solvent for 24 h (or 7 days, or 28 days) in a water bath at 25° C. or for 7 days at 50° C. The solutions are filtered and dried for 10 minutes in air. The resulting solid is analyzed by XRPD.
Various solvent were investigated: acetone, acetonitrile, dichloromethane, dioxane, ethanol, heptane, methanol, THF, acetone/water mixtures from 10/90 to 90/10, acetonitrile/water mixtures from 10/90 to 90/10, dioxane/water mixtures from 10/90 to 90/10 and ethanol/water mixture from 10/90 to 90/10, tetrahydrofuran/water (50/50) and 1-propanol/water (70/30).

[4] = Hygroscopicity by DVS
Text: Crystalline form HB is a hydrated form of (S)-3-amino-4-(5-(4-((5-chloro-3-fluoropyridin-2-yl)oxy)phenyl)-2H-tetrazol-2-yl)butanoic acid.

[5] = Solubility in aqueous buffers and bio-relevant media
[6] = Solid state stability in bulk (HPLC degradation products, XRPD); details: test conditions 1-5: 1 week, tight or open container, room temperature to 80° C., up to 92% RH; listed as Modification HB
Method: The chemical and physical stability of form B and form HB was investigated, exposing the individual forms to high humidity at temperatures ranging from 25-80° C.
The degradation products were analyzed by HPLC and the sample was analyzed by XPRD to detect any changes to the solid state.

[7] = Physical stability: behavior under compression (XRPD); details: 5 minutes at 10 tons, hydraulic press, 13 mm tablets
Method: Behavior under compression: The physical stability of crystalline Form HB was also evaluated. 300 mf of the crystalline form HB was compressed for 5 minutes at 10 tons with a hydraulic press (diameter of the tablets 13 mm). The sample was then characterized by XRPD to detect any change in the solid state.

[8] = Stability in solvent: equilibration of Form HB with solvent, residue analysed by XRPD; remark: listed apart in the source

N[C@@H](CC(=O)O)Cn1nnc(-c2ccc(Oc3ncc(Cl)cc3F)cc2)n1 [Form HB, (S)-3-amino-4-(5-(4-((5-chloro-3-fluoropyridin-2-yl)oxy)phenyl)-2H-tetrazol-2-yl)butanoic acid]
Change by XRPD under grinding [1]: did not result in any change | Form change by XRPD upon granulation [2]: no form change | Solid form after equilibration with solvent ([3]; 25° C., 7 days or 28 days, a variety of solvent): no change | Solid form after equilibration with solvent ([3]; 25° C., 7 days or 28 days, acetone, dioxane, ethanol, methanol and THF): converts to amorphous material or gel like material | Solid state residue ([3]; 50° C., 7 days, 1,4-Dioxane): Amorphous | Solid state residue ([3]; 50° C., 7 days, 1-Butanol): Amorphous | Solid state residue ([3]; 50° C., 7 days, Acetone): Amorphous | Solid state residue ([3]; 50° C., 7 days, Acetone/water 50/50): Form HB | Solid state residue ([3]; 50° C., 7 days, Acetone/water 90/10): Form HB | Solid state residue ([3]; 50° C., 7 days, Acetonitrile): Amorphous | Solid state residue ([3]; 50° C., 7 days, Anisole): Amorphous | Solid state residue ([3]; 50° C., 7 days, DMSO): Amorphous | Solid state residue ([3]; 50° C., 7 days, DMSO/methanol 50/50): Amorphous | Solid state residue ([3]; 50° C., 7 days, DMSO/water 50/50): Form HB | Solid state residue ([3]; 50° C., 7 days, DMSO/water 90/10): Amorphous | Solid state residue ([3]; 50° C., 7 days, Dichloromethane): Amorphous | Solid state residue ([3]; 50° C., 7 days, Ethanol): Amorphous | Solid state residue ([3]; 50° C., 7 days, Ethyl acetate): Amorphous | Solid state residue ([3]; 50° C., 7 days, Isopropanol): Amorphous | Solid state residue ([3]; 50° C., 7 days, Isopropyl acetate): Amorphous | Solid state residue ([3]; 50° C., 7 days, MEK): Amorphous | Solid state residue ([3]; 50° C., 7 days, MIBK): Amorphous | Solid state residue ([3]; 50° C., 7 days, MTBE): Amorphous | Solid state residue ([3]; 50° C., 7 days, Methanol): transformed into Form B | Solid state residue ([3]; 50° C., 7 days, NMP): Amorphous | Solid state residue ([3]; 50° C., 7 days, THF): Amorphous | Solid state residue ([3]; 50° C., 7 days, THF/acetone 50/50): Amorphous | Solid state residue ([3]; 50° C., 7 days, THF/methanol 50/50): Amorphous | Solid state residue ([3]; 50° C., 7 days, THF/water 50/50): Form HB | Solid state residue ([3]; 50° C., 7 days, Toluene): Amorphous | Solid state residue ([3]; 50° C., 7 days, Water): Form HB | Solid form after equilibration with solvent ([3]; 50° C., 7 days, many solvents): became amorphous | Solid state residue ([3]; 50° C., 7 days, n-Heptane): mixture HB + B | Rehydration ([4]; at 10% RH and above 60% RH): Stepwise rehydration to HB | Behaviour at low humidity ([4]; below 10% RH): loses their water | Hygroscopicity ([4]; between 10-90% RH): not hygroscopic | solubility ([5]; FaSSIF (pH=6.5)): 90 µg/mL (≈ 229 µM) | solubility ([5]; FeSSIF (pH=5.8)): 9 µg/mL (≈ 22.9 µM) | solubility ([5]; simulated gastric fluid (SGF of pH=2)): 750 µg/mL (≈ 1910 µM) | Chemical and physical stability in bulk [6]: stable in all conditions except at 80 °C without humidity | Change of crystalline form by XRPD under compression [7]: No change of crystalline form | Form conversion through slurry ([8]; high temperature slurry at 80° C. in aqueous solvent mixtures): Modification B can be obtained | Form conversion through slurry ([8]; hot or boiling methanol, about 50° C. to about 65° C.): transforms into anhydrous Modification B
